The values that follow come from US20100249132A1, “IMIDAZOLE DERIVATIVES” (MERCK PATENT GESELLSCHAFT MIT BESCHRANKTER HAFTUNG, priority 2007, published 2010).

The structures appear in SMILES notation.

The test deals with T1, recombinant autotaxin (Homo sapiens, UniProt Q13822).
T1 construct: made in house; host or cells: Hi5 insect cells (baculovirus)
Nature of the test: Autotaxin test (enzyme test), Amplex Red fluorescence. Format: biochemical. Particulars: substrate LPC 75 μM, Amplex Red detection, read-out: IC50 (autotaxin inhibition, enzyme test). The procedure:
Autotaxin Inhibition (Enzyme Test)
Autotaxin Test (Enzyme Test)
The autotaxin activity is measured indirectly using Amplex Red reagent. Amplex Red is measured here as fluorogenic indicator for the H2O2 formed. In detail, autotaxin converts the substrate lysophosphatidylcholine (LPC) into phosphocholine and lysophosphatidylic acid (LPA). After this reaction, the phosphocholine is reacted with alkaline phosphatase to give inorganic phosphate and choline. In the next step, choline is oxidised by choline oxidase to give betaine, with formation of H2O2. H2O2 reacts with Amplex Red reagent in the presence of peroxidase (horseradish peroxidase) in a 1:1 stoichiometry and forms the highly fluorescent resorufin. The fluorescence is measured in a reaction-dependent kinetic mode in order that fluorescent signals from possible other fluorescent substances which are not involved in the reaction can be corrected out.
1.5 μl of a standard solution or of the test substances (substances with the name A(n)) in individual concentrations dissolved in 20 mM Hepes pH 7.2 with a maximum of 7.7% of DMSO are pre-incubated together with 10 μl (16 ng) of highly purified recombinant autotaxin in a black microtitre plate provided with 384 wells at 22° C. for 30 min. The reaction is then initiated by addition of 5 μl of L-α-lysophosphatidylcholine (LPC), where the final concentration of LPC is 75 μM. The mixture is incubated at 37° C. for 90 min. After the incubation, Amplex Red reagent, peroxidase (horseradish peroxidase) and choline oxidase is added, and the fluorescence is immediately measured at 612 nm with excitation of 485 nm in a “Tecan Ultra multimode” reader. The activity of autotaxin is calculated indirectly via detection of the H2O2 formed. • Material: • Microtitre plate: PS microplate, 384 wells, small volume, black Corning, Cat #3677 • Protein: recombinant autotaxin (Baculovirale Hi5 Expression) • Substrate: L-α-lysophosphatidylcholine (chicken egg)); Avanti Polar Lipids #830071 P • Standard: C14 LPA, Avanti Polar Lipids, Cat #857120P • Detection reagent: Amplex Red reagent; Invitrogen #A12222; dissolved in 1.923 ml of DMSO peroxidase type VI-A (horseradish) from Sigma #P6782; dissolved in 7.45 ml of test buffer, choline oxidase; Sigma #C5896; dissolved in 2.47 ml of test buffer • Detection reagent mix: 1:100 dilution of Amplex Red reagent in test buffer • Test buffer: 200 mM Tris HCl, Merck, Cat #1.08219, pH 7.9, 0.1% of BSA, lipid-free, Roche Cat #775835

Consider `Cc1ccc(NC(=O)Nc2[nH]c(COc3ccc(CC(=O)O)cc3)nc2C(N)=O)cc1` [Compound A58, {4-[4-Carbamoyl-5-(3-p-tolylureido)-1H-imidazol 2-ylmethoxy]phenyl}acetic acid], for which the IC50 (usually the midpoint of a concentration-inhibition curve) is > 10 µM.

In the case of `NC(=O)c1nc(COc2ccc(CC(=O)O)cc2)[nH]c1NC(=O)Nc1ccc(Cl)cc1` [Compound A59, (4-{4-Carbamoyl-5-[3-(4-chlorophenyl)ureido]-1H-imidazol-2-ylmethoxy}phenyl)acetic acid], the IC50 was > 10 µM.

As for `Cc1ccc(NC(=O)Nc2[nH]c(COc3ccc(CC(=O)O)cc3)nc2C(N)=O)c(C)c1` [Compound A60, (4-{4-Carbamoyl-5-[3-(2,4-dimethylphenyl)-ureido]-1H-imidazol-2-ylmethoxy}phenyl)acetic acid], the IC50 lay within 1 to 10 µM.

For the molecule `CCc1ccc(NC(=O)Nc2[nH]c(COc3ccc(CC(=O)O)cc3)nc2C(N)=O)cc1` [Compound A61, (4-{4-Carbamoyl-5-[3-(4-ethylphenyl)ureido]-1H-imidazol-2-ylmethoxy}phenyl)acetic acid], the IC50 fell in the range of 1 to 10 µM.

`Cc1cc(Cl)ccc1NC(=O)Nc1[nH]c(COc2ccc(CC(=O)O)cc2)nc1C(N)=O` [Compound A62, (4-{4-Carbamoyl-5-[3-(4-chloro-2-methylphenyl)-ureido]-1H-imidazol-2-ylmethoxy}phenyl)acetic acid]: the IC50 lay within 1 to 10 µM.

Turning to `COc1cc(NC(=O)Nc2[nH]c(COc3ccc(CC(=O)O)cc3)nc2C(N)=O)cc(OC)c1` [Compound A63, (4-{4-Carbamoyl-5-[3-(3,5-dimethoxyphenyl)-ureido]-1H-imidazol-2-ylmethoxy}phenyl)acetic acid], the IC50 is > 10 µM.

For the molecule `NC(=O)c1nc(COc2ccc(CC(=O)O)cc2)[nH]c1NC(=O)Nc1ccc(F)c(C(F)(F)F)c1` [Compound A64, (4-{4-Carbamoyl-5-[3-(4-fluoro-3-trifluoromethyl-phenyl)ureido]-1 H-imidazol-2-ylmethoxy}phenyl)-acetic acid], the IC50 is > 10 µM.

As to `NC(=O)c1nc(Cc2ccc(C(=O)O)s2)[nH]c1NC(=O)Nc1cccc(C(F)(F)F)c1` [Compound A65, 5-{4-Carbamoyl-5-[3-(3-trifluoromethylphenyl)-ureido]-1H-imidazol-2-ylmethyl}thiophene-2-carboxylic acid], the IC50 was > 10 µM.

Turning to `NC(=O)c1nc(Cc2ccc(C(=O)O)s2)[nH]c1NC(=O)Nc1ccc(C(F)(F)F)cc1` [Compound A66, 5-{4-Carbamoyl-5-[3-(4-trifluoromethylphenyl)-ureido]-1H-imidazol-2-ylmethyl}thiophene-2-carboxylic acid], the IC50 was in the range of 1 to 10 µM.

For `Cc1ccccc1NC(=O)Nc1[nH]c(Cc2ccc(C(=O)O)s2)nc1C(N)=O` [Compound A67, 5-[4-Carbamoyl-5-(3-o-tolylureido)-1H-imidazol 2-ylmethyl]thiophene-2-carboxylic acid], the 50% inhibitory concentration (IC50) was > 10 µM.

For `CC(C)c1ccc(NC(=O)Nc2[nH]c(Cc3ccc(C(=O)O)s3)nc2C(N)=O)cc1` [Compound A68, 5-{4-Carbamoyl-5-[3-(4-isopropylphenyl)ureido]-1H-imidazol-2-ylmethyl}thiophene-2-carboxylic acid], the IC50 lay within 1 to 10 µM.

As to `Cc1ccc(NC(=O)Nc2[nH]c(Cc3ccc(C(=O)O)s3)nc2C(N)=O)cc1` [Compound A69, 5-[4-Carbamoyl-5-(3-p-tolylureido)-1H-imidazol 2-ylmethyl]thiophene-2-carboxylic acid], the IC50 is > 10 µM.

As to `Cc1ccc(NC(=O)Nc2[nH]c(Cc3ccc(C(=O)O)s3)nc2C(N)=O)c(C)c1` [Compound A71, 5-{4-Carbamoyl-5-[3-(2,4-dimethylphenyl)-ureido]-1H-imidazol-2-ylmethyl}thiophene-2-carboxylic acid], the IC50 fell in the range of 1 to 10 µM.

`CCc1ccc(NC(=O)Nc2[nH]c(Cc3ccc(C(=O)O)s3)nc2C(N)=O)cc1` [Compound A72, 5-{4-Carbamoyl-5-[3-(4-ethylphenyl)ureido]-1H-imidazol-2-ylmethyl}thiophene-2-carboxylic acid]: the IC50 was 1 to 10 µM.

In the case of `Cc1cc(NC(=O)Nc2[nH]c(Cc3ccc(C(=O)O)s3)nc2C(N)=O)ccc1F` [Compound A73, 5-{4-Carbamoyl-5-[3-(4-fluoro-3-methylphenyl)-ureido]-1H-imidazol-2-ylmethyl}thiophene-2-carboxylic acid], the IC50 is > 10 µM.

Turning to `Cc1cc(Cl)ccc1NC(=O)Nc1[nH]c(Cc2ccc(C(=O)O)s2)nc1C(N)=O` [Compound A74, 5-{4-Carbamoyl-5-[3-(4-chloro-2-methylphenyl)-ureido]-1H-imidazol-2-ylmethyl}thiophene-2-carboxylic acid], the IC50 fell in the range of 1 to 10 µM.

As for `NC(=O)c1nc(Cc2ccc(C(=O)O)s2)[nH]c1NC(=O)Nc1ccc(F)c(C(F)(F)F)c1` [Compound A75, 5-{4-Carbamoyl-5-[3-(4-fluoro-3-trifluoromethyl-phenyl)ureido]-1H-imidazol-2-ylmethyl}-thiophene-2-carboxylic acid], the IC50 is > 10 µM.

`CCCCc1ccc(NC(=O)Nc2[nH]c(Cc3ccc(C(=O)NC4CCCCC4)o3)nc2C(N)=O)cc1` [Compound A77, 5-[3-(4-Butylphenyl)ureido]-2-(5-cyclohexyl-carbamoylfuran-2-ylmethyl)-1H-imidazole-4-carboxamide]: the IC50 is > 10 µM.

As for `CCCCc1ccc(NC(=O)Nc2[nH]c(Cc3ccc(C(=O)N(CC)CC)o3)nc2C(N)=O)cc1` [Compound A78, 5-[3-(4-Butylphenyl)ureido]-2-(5-diethyl-carbamoylfuran-2-ylmethyl)-1H-imidazole-4-carboxamide], the IC50 is > 10 µM.

For the molecule `CCCCc1ccc(NC(=O)Nc2[nH]c(Cc3ccc(C(=O)N(C)CCCC)o3)nc2C(N)=O)cc1` [Compound A79, 2-[5-(Butylmethylcarbamoyl)furan-2-ylmethyl]-5-[3-(4-butylphenyl)ureido]-1H-imidazole-4-carboxamide], the IC50 was > 10 µM.

For `CCCCc1ccc(NC(=O)Nc2[nH]c(Cc3ccc(C(=O)N(CCCC)CCCC)o3)nc2C(N)=O)cc1` [Compound A80, 5-[3-(4-Butylphenyl)ureido]-2-(5-dibutyl-carbamoylfuran-2-ylmethyl)-1H-imidazole-4-carboxamide], the IC50 was > 10 µM.

For the molecule `CCCCc1ccc(NC(=O)Nc2[nH]c(Cc3ccc(C(=O)N4CCCC4)o3)nc2C(N)=O)cc1` [Compound A81, 5-[3-(4-Butylphenyl)ureido]-2-[5-(pyrrolidine-1-carbonyl)furan-2-ylmethyl]-1H-imidazole-4-carboxamide], the IC50 was > 10 µM.

As for `CCCCc1ccc(NC(=O)Nc2[nH]c(Cc3ccc(C(=O)N4C[C@@H](C)O[C@@H](C)C4)o3)nc2C(N)=O)cc1` [Compound A82, 5-[3-(4-Butylphenyl)ureido]-2-[5-((5R,6S)-2,6-dimethylmorpholine-4-carbonyl)furan-2-yl-methyl]-1H-imidazole-4-carboxamide], the IC50 is > 10 µM.

As to `CCCCc1ccc(NC(=O)Nc2[nH]c(Cc3ccc(C(=O)N4CCOCC4)o3)nc2C(N)=O)cc1` [Compound A83, 5-[3-(4-Butylphenyl)ureido]-2-[5-(morpholine-4-carbonyl)furan-2-ylmethyl]-1H-imidazole-4-carboxamide], the IC50 was > 10 µM.

Consider `CCCCc1ccc(NC(=O)Nc2[nH]c(Cc3ccc(C(=O)N(C)c4ccccc4)o3)nc2C(N)=O)cc1` [Compound A84, 5-[3-(4-Butylphenyl)ureido]-2-[5-(methylphenyl-carbamoyl)furan-2-ylmethyl]-1H-imidazole-4-carboxamide], for which the IC50 fell in the range of 1 to 10 µM.

`CCCCc1ccc(NC(=O)Nc2[nH]c(Cc3ccc(C(=O)N4CCN(C)CC4)o3)nc2C(N)=O)cc1` [Compound A85, 5-[3-(4-Butylphenyl)ureido]-2-[5-(4-methyl-piperazine-1-carbonyl)furan-2-ylmethyl]-1H-imidazole-4-carboxamide]: the IC50 is 1 to 10 µM.

Consider `CCCCc1ccc(NC(=O)Nc2[nH]c(Cc3ccc(C(=O)N4CCN(c5ccccc5)CC4)o3)nc2C(N)=O)cc1` [Compound A86, 5-[3-(4-Butylphenyl)ureido]-2-[5-(4-phenyl-piperazine-1-carbonyl)furan-2-ylmethyl]-1H-imidazole-4-carboxamide], for which the IC50 is > 10 µM.

Turning to `CCCCc1ccc(NC(=O)Nc2[nH]c(Cc3ccc(C(=O)N4CCC(C)CC4)o3)nc2C(N)=O)cc1` [Compound A87, 5-[3-(4-Butylphenyl)ureido]-2-[5-(4-methyl-piperidine-1-carbonyl)furan-2-ylmethyl]-1H-imidazole-4-carboxamide], the concentration for half-maximal inhibition (IC50) was > 10 µM.
